Measurements: patent US20160310589A1, “Glucopyranosyl Lipid A and Allergen Formulations For Sublingual Administration” (Sanofi, priority 2015, published 2016)

What was measured:
[1] = system: Ova-specific OT-II TcR transgenic T cells; experiment: Antigen-specific OT-II T cell proliferation after sublingual administration (cell-tracker dye, flow cytometry); type: in vivo, mice; details: GLA 0.2 μg, OVa323-339 peptide 10 μg, four days later (FIGS. 4A, 4C, 4E)
Experimental: Ova-specific OT-II TcR transgenic T cells were labeled with cell-tracker violet dye and adoptively transferred into syngeneic wild type mice. Mice then received sublingual administration of GLA (0.2 μg) alone (FIGS. 4A and 4B), OVa323-339 peptide (10 μg) alone (FIGS. 4C and 4D), or GLA co-administered with Ova peptide (FIGS. 4E and 4F). Four days later, the draining cervical lymph nodes (FIGS. 4A, 4C, and 4E) and spleen (FIGS. 4B, 4D, and 4F) were removed and OT-II T cell proliferation (via the decrease in cell-tracker dye fluorescence) was measured by flow cytometry.
Methods. Sublingual administration was performed as described above in Example 1.
Formulations of Ova peptide and/or GLA included methylcellulose as described in Example 1. Mixtures of methylcellulose+Ova peptide, and methylcellulose+Ova peptide+GLA were prepared the day before dosing.
Ova-specific OT-II TcR transgenic T cells were labeled with cell-tracker violet dye and adoptively transferred into syngeneic wild type mice. Mice then received sublingual administration of GLA (0.2 μg, 0.02 μg or 0.002 μg) co-administered with OVa323-339 peptide or peptide without GLA (0 mg). Four days later, cervical lymph nodes were removed and OT-II T cell proliferation (via the decrease in cell-tracker dye fluorescence) was measured by flow cytometry.

IL-6 = system: IL-6
Experimental: GLA was formulated in DPPC (1,2-dipalmitoyl-sn-glycero-3-phosphocholine) as GLA:DPPC 1:2 (M:M) in Millipore (sterile) water. Animals were sedated with ketamine (5 mg/kg to 10 mg/kg)/dexmedetomidine (0.01 mg/kg to 0.016 mg/kg), IM (intramuscularly), while in their cage. Once sedated, they were brought into the laboratory and placed onto a circulating water heating pad (Gaymar). Sublingual (right side) and left cheek pouch mucosal brushings were taken 15 minutes prior to dosing using Copan FLOQSwabs™ and placed into RLT buffer (QIAmp Minikit Plus, Qiagen), vortexed and immediately frozen on dry ice. Sublingual dosing of GLA (100 μl dosed via syringe) was performed under the right side of the animals tongue and allowed to absorb into the mucosa for three minutes. Further sublingual and cheek brushings were obtained at 6 hr, 24 hr and 48 hr post dosing.
RNA processing was performed from the cheek and sublingual swabs using a QIAmp Minikit Plus (Qiagen) which includes a gDNA (genomic DNA) eliminator column. Gene expression was quantified using the Comparative CT Method, which calculates the relative gene expression quantitation between a target gene and an endogenous control. All target genes were quantitated relative to the expression of the housekeeping gene ARL1. Using the relative expression, the fold of baseline expression was calculated as [(Relative gene expression at time point of interest)/(Baseline relative gene expression)].

[2] = six hours after sublingual administration

Compound: OVa323-339 peptide: Ova peptide antigen recognised by OT-II TcR transgenic T cells (KISQAVHAAHAEINEAG; UniProt P01012 323-339, looked up, fragment)
- antigen-specific T cell proliferation in the draining cervical lymph nodes [1]: not

Compound: CCCCCCCCCCCCCC(=O)O[C@H](CCCCCCCCCCC)CC(=O)O[C@@H]1[C@@H](NC(=O)C[C@H](CCCCCCCCCCC)OC(=O)CCCCCCCCCCCCC)[C@H](OC[C@H]2O[C@H](O)[C@H](NC(=O)C[C@H](O)CCCCCCCCCCC)[C@@H](OC(=O)C[C@H](O)CCCCCCCCCCC)[C@@H]2O)O[C@H](CO)[C@H]1OP(=O)(O)O [GLA, Glucopyranosyl Lipid A]
- antigen-specific T cell proliferation in the draining cervical lymph nodes [1]: not
- IL-6 expression 24 hours after sublingual administration (IL-6; 24 hours after sublingual administration): not detected
- duration of local action within the oral cavity (IL-6; current formulation GLA:DPPC 1:2, sublingual): ≤ 1 days
- IL-6 in brushings from the cheek (IL-6; [2]): not detected
- IL-6 in the blood (IL-6; [2]): not detected
- IL-6 expression in sublingual mucosal brushings (IL-6; six hours after sublingual administration, 3 different doses of GLA): dose-dependent expression of IL-6
